# Target: T1, STAT3 (Homo sapiens, UniProt P40763)
# T1 construct: GST-STAT3
# Assay: TR-FRET displacement of fluorescent phosphopeptide (5-FAM-G(pY)LPQTVC-NH2) from GST-STAT3
# Type: binding
# T1 sequence (P40763 2-770): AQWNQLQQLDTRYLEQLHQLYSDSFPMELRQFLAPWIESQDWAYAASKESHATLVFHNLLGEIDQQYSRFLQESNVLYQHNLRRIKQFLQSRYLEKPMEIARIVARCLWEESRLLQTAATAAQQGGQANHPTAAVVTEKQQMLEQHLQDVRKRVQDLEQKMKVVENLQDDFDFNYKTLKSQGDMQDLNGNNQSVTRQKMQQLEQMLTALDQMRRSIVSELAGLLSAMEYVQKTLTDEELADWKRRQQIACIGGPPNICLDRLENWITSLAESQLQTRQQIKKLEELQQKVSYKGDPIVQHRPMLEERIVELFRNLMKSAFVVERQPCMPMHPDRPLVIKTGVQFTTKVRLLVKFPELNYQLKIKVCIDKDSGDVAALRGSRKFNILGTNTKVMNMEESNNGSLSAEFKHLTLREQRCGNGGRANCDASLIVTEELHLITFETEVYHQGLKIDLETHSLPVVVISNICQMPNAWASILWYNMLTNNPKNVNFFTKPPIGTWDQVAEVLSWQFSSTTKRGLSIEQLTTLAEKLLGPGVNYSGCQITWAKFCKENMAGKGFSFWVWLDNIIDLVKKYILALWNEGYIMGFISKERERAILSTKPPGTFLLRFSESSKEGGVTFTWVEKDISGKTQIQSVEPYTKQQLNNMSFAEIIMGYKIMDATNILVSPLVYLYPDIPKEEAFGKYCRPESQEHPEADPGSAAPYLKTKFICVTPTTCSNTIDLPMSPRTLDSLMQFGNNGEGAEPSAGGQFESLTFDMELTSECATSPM
substance,measurement,value
S3I-1757,IC50,62.1 ± 6.1 µM
